Measurements reported in the supplement of paper PMC10307832.

Assays:
Assay in all cases: relative viability (nuclei count vs DMSO), 5 days (fraction); higher = more cells survive
Axitinib + Alpelisib = compound: CNC(=O)c1ccccc1Sc1ccc2c(/C=C/c3ccccn3)n[nH]c2c1 [Axitinib] + Cc1nc(NC(=O)N2CCC[C@H]2C(N)=O)sc1-c1ccnc(C(C)(C)C(F)(F)F)c1 [Alpelisib] (partner 2 µM)
How it was run: (§1)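 One day after seeding in 1536-well plates, lung cancer cell lines were dosed by pin tool. Dosing was either single-drug or a fixed anchor-drug dose plus five library-drug doses (not always all listed) in √10 steps. After 5 days, nuclei were stained in one fix-and-stain step and counted on 4× images, and relative viability is the nuclei count of treated wells over that of vehicle wells, given as the median of duplicate plates.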

Axitinib + Vorinostat = compound: CNC(=O)c1ccccc1Sc1ccc2c(/C=C/c3ccccn3)n[nH]c2c1 [Axitinib] + O=C(CCCCCCC(=O)Nc1ccccc1)NO [Vorinostat] (partner 1 µM)
How it was run: as §1

Bemcentinib + Tozasertib = compound: Nc1nc(Nc2ccc3c(c2)CC[C@@H](N2CCCC2)CC3)nn1-c1cc2c(nn1)-c1ccccc1CCC2 [Bemcentinib] + Cc1cc(Nc2cc(N3CCN(C)CC3)nc(Sc3ccc(NC(=O)C4CC4)cc3)n2)n[nH]1 [Tozasertib] (partner 0.1 µM)
How it was run: as §1

Bemcentinib + Dasatinib = compound: Nc1nc(Nc2ccc3c(c2)CC[C@@H](N2CCCC2)CC3)nn1-c1cc2c(nn1)-c1ccccc1CCC2 [Bemcentinib] + Cc1nc(Nc2ncc(C(=O)Nc3c(C)cccc3Cl)s2)cc(N2CCN(CCO)CC2)n1 [Dasatinib] (partner 0.075 µM)
How it was run: as §1

| Cell Line | relative viability (Axitinib + Alpelisib; first compound 0.005 µM) | relative viability (Axitinib + Alpelisib; first compound 0.01581 µM) | relative viability (Axitinib + Alpelisib; first compound 0.05 µM) | relative viability (Axitinib + Alpelisib; first compound 0.1581 µM) | relative viability (Axitinib + Alpelisib; first compound 0.5 µM) | relative viability (Axitinib + Vorinostat; first compound 0.005 µM) | relative viability (Axitinib + Vorinostat; first compound 0.01581 µM) | relative viability (Axitinib + Vorinostat; first compound 0.05 µM) | relative viability (Axitinib + Vorinostat; first compound 0.1581 µM) | relative viability (Axitinib + Vorinostat; first compound 0.5 µM) | relative viability (Bemcentinib + Tozasertib; first compound 0.04 µM) | relative viability (Bemcentinib + Tozasertib; first compound 0.1265 µM) | relative viability (Bemcentinib + Tozasertib; first compound 0.4 µM) | relative viability (Bemcentinib + Tozasertib; first compound 1.265 µM) | relative viability (Bemcentinib + Tozasertib; first compound 4 µM) | relative viability (Bemcentinib + Dasatinib; first compound 0.04 µM) | relative viability (Bemcentinib + Dasatinib; first compound 0.1265 µM) | relative viability (Bemcentinib + Dasatinib; first compound 0.4 µM) | relative viability (Bemcentinib + Dasatinib; first compound 1.265 µM) | relative viability (Bemcentinib + Dasatinib; first compound 4 µM) |
| --- | --- | --- | --- | --- | --- | --- | --- | --- | --- | --- | --- | --- | --- | --- | --- | --- | --- | --- | --- | --- |
| NCI-H441 | 0.79 | 0.72 | 0.965 | 0.561 | 0.852 | 0.78 | 0.659 | 0.855 | 0.627 | 0.911 | 0.733 | 0.847 | 0.781 | 0.649 | 0.611 | 0.536 | 0.773 | 0.862 | 0.649 | 0.609 |
| LC-2-ad | 0.942 | 0.859 | 0.83 | 0.907 | 0.903 | 0.67 | 0.722 | 0.736 | 0.713 | 0.685 | 0.451 | 0.478 | 0.451 | 0.486 | 0.442 | 0.308 | 0.597 | 0.659 | 0.669 | 0.557 |
| NCI-H838 | 1.12 | 1 | 1.05 | 1 | 1.18 | 0.814 | 0.725 | 0.792 | 0.707 | 0.752 | 0.281 | 0.268 | 0.264 | 0.262 | 0.291 | 0.221 | 0.305 | 0.309 | 0.254 | 0.294 |
| NCI-H1944 | 0.797 | 0.827 | 0.855 | 0.854 | 0.868 | 0.616 | 0.54 | 0.585 | 0.498 | 0.518 | 0.258 | 0.261 | 0.255 | 0.251 | 0.242 | 0.206 | 0.202 | 0.214 | 0.204 | 0.2 |
| CAL-12T | 1.35 | 1.38 | 1.01 | 1.26 | 1.32 | 0.869 | 0.72 | 0.686 | 0.737 | 1.12 | 0.302 | 0.368 | 0.307 | 0.286 | 0.329 | 0.366 | 0.356 | 0.398 | 0.45 | 0.555 |
| EPLC-272H | 1.11 | 0.868 | 0.949 | 0.884 | 0.915 | 0.341 | 0.359 | 0.498 | 0.481 | 0.459 | 0.281 | 0.207 | 0.249 | 0.252 | 0.261 | 0.285 | 0.389 | 0.332 | 0.393 | 0.364 |
| NCI-H2170 | 0.849 | 0.787 | 0.817 | 0.892 | 1.03 | 0.898 | 0.85 | 0.896 | 0.739 | 0.799 | 0.73 | 0.764 | 0.763 | 0.658 | 0.644 | 0.485 | 0.664 | 0.603 | 0.477 | 0.589 |
| NCI-H1915 | 1.08 | 1.08 | 1.03 | 1.08 | 1.08 | 0.552 | 0.516 | 0.508 | 0.536 | 0.517 | 0.511 | 0.462 | 0.44 | 0.468 | 0.443 | 0.304 | 0.302 | 0.307 | 0.332 | 0.331 |
| NCI-H2087 | 1.18 | 1.04 | 0.993 | 1.07 | 1.22 | 0.618 | 0.626 | 0.741 | 0.699 | 0.936 | 0.226 | 0.251 | 0.276 | 0.28 | 0.252 | 0.797 | 1.02 | 0.949 | 0.901 | 0.929 |
| LCLC-97TM1 | 0.252 | 0.285 | 0.237 | 0.205 | 0.247 | 0.889 | 0.734 | 0.756 | 0.804 | 0.766 | 0.214 | 0.214 | 0.22 | 0.246 | 0.186 | 0.851 | 0.818 | 0.736 | 0.851 | 0.975 |
| NCI-H1734 | 0.547 | 0.691 | 0.702 | 0.626 | 0.707 | 0.787 | 0.891 | 0.865 | 0.903 | 0.964 | 0.245 | 0.28 | 0.25 | 0.256 | 0.27 | 0.46 | 0.48 | 0.512 | 0.41 | 0.448 |
| EKVX | 1.06 | 0.82 | 0.838 | 0.87 | 1 | 0.804 | 0.687 | 0.797 | 0.686 | 0.805 | 0.39 | 0.468 | 0.39 | 0.437 | 0.374 | 0.556 | 0.528 | 0.592 | 0.628 | 0.588 |
| 201T | 1.01 | 0.959 | 0.947 | 0.987 | 0.972 | 0.995 | 0.946 | 0.969 | 0.9 | 0.951 | 0.932 | 1.06 | 0.94 | 0.868 | 0.964 | 0.559 | 0.676 | 0.591 | 0.613 | 0.57 |
| NCI-H2085 | 1.05 | 0.85 | 0.979 | 0.866 | 0.947 | 0.823 | 0.788 | 0.883 | 0.758 | 0.812 | 0.788 | 0.974 | 0.69 | 0.797 | 0.757 | 0.224 | 0.195 | 0.258 | 0.256 | 0.294 |
| NCI-H1395 | 1.22 | 1.02 | 1.21 | 1.07 | 1.18 | 0.706 | 0.529 | 0.709 | 0.639 | 0.649 | 0.759 | 0.763 | 0.782 | 0.739 | 0.753 | 0.393 | 0.392 | 0.439 | 0.364 | 0.396 |
| NCI-H2405 | 0.854 | 0.847 | 0.854 | 0.877 | 0.849 | 1.01 | 1.03 | 1.18 | 0.953 | 1.13 | 0.733 | 0.783 | 0.702 | 0.74 | 0.671 | 0.194 | 0.22 | 0.21 | 0.215 | 0.165 |
| EMC-BAC-2 | 0.788 | 0.702 | 0.742 | 0.749 | 0.808 | 0.469 | 0.371 | 0.528 | 0.445 | 0.438 | 0.264 | 0.281 | 0.285 | 0.305 | 0.301 | 0.349 | 0.323 | 0.342 | 0.29 | 0.336 |
| LCLC-103H | 0.987 | 0.922 | 0.845 | 0.621 | 0.999 | 0.767 | 0.801 | 0.808 | 0.75 | 0.759 | 0.442 | 0.484 | 0.539 | 0.478 | 0.474 | 0.419 | 0.192 | 0.478 | 0.393 | 0.531 |
| BEN | 0.993 | 1.04 | 0.928 | 1.04 | 0.908 | 0.609 | 0.637 | 0.635 | 0.592 | 0.551 | 0.464 | 0.446 | 0.569 | 0.579 | 0.461 | 0.272 | 0.37 | 0.317 | 0.22 | 0.241 |
| NCI-H1755 | 0.987 | 0.84 | 0.922 | 0.878 | 0.915 | 0.77 | 0.8 | 0.797 | 0.714 | 0.572 | 0.64 | 0.742 | 0.626 | 0.607 | 0.613 | 0.379 | 0.511 | 0.397 | 0.438 | 0.41 |
| LU99A | 0.492 | 0.498 | 0.533 | 0.515 | 0.522 | 0.514 | 0.472 | 0.56 | 0.465 | 0.409 | 0.263 | 0.31 | 0.248 | 0.264 | 0.258 | 0.489 | 0.568 | 0.519 | 0.661 | 0.573 |
| NCI-H1793 | 0.667 | 0.701 | 0.722 | 0.73 | 0.676 | 0.955 | 0.679 | 0.693 | 0.637 | 0.678 | 0.313 | 0.371 | 0.314 |  | 0.371 | 0.305 | 0.412 | 0.342 |  | 0.405 |
| NCI-H460 | 0.569 | 0.571 | 0.54 | 0.549 | 0.821 | 0.758 | 0.772 | 0.734 | 0.732 | 0.914 | 0.432 | 0.619 | 0.525 | 0.364 | 0.524 | 0.452 | 0.534 | 0.562 | 0.535 | 0.551 |
| SK-LU-1 | 1.11 | 1.32 | 1.05 | 1.06 | 1.63 | 0.805 | 0.835 | 0.808 | 0.817 | 0.959 | 0.342 | 0.363 | 0.283 | 0.367 | 0.335 | 0.181 | 0.201 | 0.197 | 0.191 | 0.155 |
| HARA | 0.877 | 0.909 | 0.975 | 0.824 | 1.02 | 0.533 | 0.559 | 0.526 |  | 0.655 | 0.12 | 0.139 | 0.106 | 0.102 | 0.102 | 0.124 | 0.27 | 0.253 | 0.221 | 0.21 |
| ABC-1 | 1.16 | 1.06 | 0.945 | 1.07 | 1.54 | 1.15 |  | 1.13 | 1.47 | 1.34 | 0.16 | 0.175 | 0.187 | 0.193 | 0.162 | 0.423 | 0.512 | 0.59 | 0.553 | 0.667 |
